Data taken from US20250305953A1, “LIGHT-EMITTING RADICAL CATION PROBE IN SITU GENERATED BY ACID INDUCTION, AND PREPARATION THEREFOR AND APPLICATION THEREOF” (SOUTH CHINA UNIVERSITY OF TECHNOLOGY, priority 2022, published 2025).

Columns and labels:
[1] = In vivo imaging with laparotomy; parameters: species or system Balb/c nude mice; conditions: dissected after imaging
From the text: The mice were anesthetized beforehand, and the gastrointestinal tract was then exposed by a single incision in the abdomen of the mice.

[2] = H&E staining and hepatorenal index analysis; format: in vivo, Balb/c nude mice
Description: 2 hours after gavage, blood (approximately 500 μL) was collected through the ocular fundus venous plexus and stored in an icebox 20 minutes before centrifugation at 3,500 r.p.m. to prevent clotting. Roche Cobas E602 electrochemical light-emitting immunoassay analyzer was used to test and analyze total protein (TP), albumin (ALB), alanine aminotransferase (ALT), aspartate aminotransferase (AST), creatinine (CREA), carbon dioxide (CO2), uric acid (UA), urea (UREA) in serum samples (200 μL).
All tissues were fixed with 4% PFA, dehydrated with an ethanol solution, embedded with paraffin, and cut into […] coronal and low-temperature sections for hematoxylin and eosin (H&E) staining. Paraffin was removed by xylene washing. Then, the sections were incubated with hematoxylin and eosin for 4 min and washed with distilled water. Stained sections were examined by using the Nikon ECLIPSE 80i microscope.

[3] = Description: 30 μL of DMSO stock solution (200 mM) of the compound P6 (4-(piperidine-1-methylene)-2,5-dimethyl-3-hydroxymethylene-^1H-pyrrole) was added to 2970 μL of the acidic buffer solution (pH=2.0-3.0).
After being mixed well, tests of the time-dependent ultraviolet-visible absorption spectrum and fluorescence spectrum were performed (2 h).

[4] = compared with P3^⋅+

Compound | fluorescence of visceral organs other than the gastrointestinal tract [1] | H&E histology of major visceral organs (stomach, liver, spleen, kidney, lung, heart) ([2]; 2 hours after gavage of 1.5 mg in 70 μL water, compared with control group) | biocompatibility ([2]; generated in situ in the stomach, conclusion) | time for conversion into the radical cation ([3]; acidic buffer solution pH=2.0-3.0, atmosphere of air) [min] | conversion efficiency ([3]; compared with P3) | light emission ([3]; compared with P3) | gastrointestinal imaging effect [4]
Cc1cc(CO)c(C)n1-c1ccccc1 [P3, 2,5-dimethyl-3-hydroxymethylene-1-phenyl-^1H-pyrrole] | without any fluorescence signal | no obvious injury or inflammatory lesion | good biocompatibility |  |  |  | 
Cc1[nH]c(C)c(CN2CCCCC2)c1CO [P6, 4-(piperidine-1-methylene)-2,5-dimethyl-3-hydroxymethylene-^1H-pyrrole] |  |  |  | ≤ 30 | lower conversion efficiency | weaker light emission | not as good as that of P3^⋅+
